Assay results as given in US6893830B1, “Method of screening oxysterol activation of LXRα” (The Board of Regents of the University of Texas System, priority 1996, dated 2005).
Like-named read-outs stand apart in the source and are kept apart here. Blank lines part the entries; values can stand above or below the molecule they belong to.

Legend:
LXRα = molecular target: T1, LXRα (Homo sapiens, UniProt Q13133); experiment: LXRα cotransfection assay with TK-LXREx3-LUC reporter in CV-1 cells; format: cell-based; parameters: expressed in transfected cells; host or cells: CV-1 monkey kidney cells; settings: for LXRα activity: 10 μM, CV-1 cotransfection assay
T1 sequence (Q13133 1-447): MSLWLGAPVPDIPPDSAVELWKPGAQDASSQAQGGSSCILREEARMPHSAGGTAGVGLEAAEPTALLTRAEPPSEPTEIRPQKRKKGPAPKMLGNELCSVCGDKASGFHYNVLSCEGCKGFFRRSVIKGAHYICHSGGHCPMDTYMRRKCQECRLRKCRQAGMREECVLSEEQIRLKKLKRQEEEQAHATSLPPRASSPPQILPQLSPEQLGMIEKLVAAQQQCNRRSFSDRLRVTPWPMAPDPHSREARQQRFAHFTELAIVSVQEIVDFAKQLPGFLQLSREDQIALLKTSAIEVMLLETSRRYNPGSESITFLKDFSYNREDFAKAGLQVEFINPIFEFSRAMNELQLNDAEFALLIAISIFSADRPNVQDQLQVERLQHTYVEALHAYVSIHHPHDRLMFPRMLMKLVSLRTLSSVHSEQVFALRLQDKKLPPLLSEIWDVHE
T1 sequence (P19793 1-462 partner): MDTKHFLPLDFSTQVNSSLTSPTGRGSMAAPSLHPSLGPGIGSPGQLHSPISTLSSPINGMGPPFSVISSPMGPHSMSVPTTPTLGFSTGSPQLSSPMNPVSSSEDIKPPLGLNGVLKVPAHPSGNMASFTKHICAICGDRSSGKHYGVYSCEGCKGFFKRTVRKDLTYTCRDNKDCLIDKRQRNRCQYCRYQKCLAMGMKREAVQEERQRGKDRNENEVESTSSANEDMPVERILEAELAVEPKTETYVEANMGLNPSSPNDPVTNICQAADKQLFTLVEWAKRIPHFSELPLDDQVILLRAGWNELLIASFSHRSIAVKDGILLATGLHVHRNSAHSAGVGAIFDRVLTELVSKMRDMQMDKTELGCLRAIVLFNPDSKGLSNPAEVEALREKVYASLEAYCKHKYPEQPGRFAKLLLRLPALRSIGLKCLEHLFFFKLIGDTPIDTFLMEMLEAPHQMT
Protocol: FIG. 1 Human LXRα is activated by gonad sterols. (A) Transactivation of LXRα ligand binding domain (LBD) with testis extract. CV-1 cells were cotransfected with a GAL4 responsive luciferase reporter plasmid and an expression plasmid encoding no receptor or a chimeric receptor composed of the GAL4 DNA binding domain fused to the LXRα ligand binding domain (LBD) (GAL4-LXRα)^3. After transfection, cells were treated with ethanol (ETOH) or 1% of the concentrated testis extract. (B) Transactivation of LXRα with follicular fluid meiosis activating substance (FF-MAS). CV-1 cells were cotransfected with an LXRα responsive reporter plasmid and the receptor expression plasmids for LXRα alone or with RXRα. After transfection, cells were treated with ETOH or […] FF-MAS.
FIG. 2 LXRα is activated by a specific subset of oxysterols. (A) Specificity of LXRα activators. Shown is a representative group from 70 compounds evaluated for LXRα activity (10 μM) in cotransfection assays as described in FIG. 1B. […] (B) The the structure-activity relationship of LXRα activators. Data compiled from FIG. 2A and other experiments (not shown) reveal that the position of the hydroxyl on the cholesterol backbone is a determinant of LXRα activity. […] Dose response curves for LXRα activators were generated in CV-1 cell cotransfection assays as described in FIG. 1B.
Organic extraction of breeding bull testis was performed as described^6. Briefly, 12 grams of lyophilized testis was extracted with N-heptane and lipids were concentrated by roto-evaporation. Aliquots representing 1% of this material were assayed. FF-MAS was synthesized as described^18. Transient transfections in CV-1 monkey kidney cells were performed in triplicate in 48-well plates as described^3 with media containing 5% cabosil-treated calf bovine serum.
Transfections were performed in FIG. 1A using 80 ng of TK-MH100x4-LUC reporter and 30 ng of CMX-GAL4-hLXRα expression plasmids per well; and in FIG. 1B using 50 ng of TK-LXREx3-LUC reporter and 25 ng of CMX-hLXRa alone or with 25 ng CMX-hRXRa expression plasmids per well. Candidate ligands were dissolved in ethanol and added 8 hours post-transfection. As an internal standard, 50 ng of CMX-β gal was included in all transfections. All plasmid constructs and determinations of luciferase and β-galactosidase activities have been described^3. To construct CMX-LXRα, the hLXRα cDNA insert was excised from the plasmid pXR2DRV (Willy, et al., 1995, Genes Dev. 9: 1033-1045) with Kpnl and BamHI and was ligated into the expression vector CMX. CMX-βgal was constructed by ligating the β-galactosidase gene into the expression vector CMX. Chimeric Gal4-receptor expression plasmid (CMX-GAL4-LXRα) was constructed by first ligating the GAL4 portion of pSC424 (Sadowski, I. and M. Ptashne, 1989, Nucleic Acids Res. 19: 7539-7530) into the HindIII/SacI sites of pCMX (Umesono, et al., 1991, Cell 65: 1255-1266) to create pCMX-GAL4. This vector contains the CMV promoter fused to the coding sequence for GAL4 (1-147), followed by inframe polylinker cloning sites and translational stop codons. The cDNAs encoding the ligand-binding domain (LBD) of hLXRα (amino acids 166-447) was then ligated into the polylinker to create CMX-GAL4-LXRα.
Reporter plasmids for these studies were constructed by ligating the appropriate oligonucleotides into the HindIII site of the TK-LUC vector to create TK-LXREx3-LUC, TK-MH100x4-LUC (Kang, T., et al., 1993, J. Biol Chem. 268: 9629-9635). The sense strand of the LXRE oligonucleotide used to construct the reporter plasmid TK-LXREx3-LUC was 5′agctt[…]3′ (SEQ. ID. NO. 1). All constructs were verified by sequencing. Data are presented as relative light units (RLUs) and represent the mean of triplicate assays±standard error. […]

LXRα protein = molecular target: T2, LXRα protein (Homo sapiens, UniProt Q13133); experiment: Limited protease protection assay (chymotrypsin) of [35S]-labelled Flag-LXRα; format: binding; settings: increasing concentrations of chymotrypsin, SDS-PAGE and autoradiography
T2 construct: made in house; host or cells: in vitro synthesis (cell-free translation)
T2 sequence (Q13133 1-447): T1 sequence (Q13133 1-447)
Protocol: FIG. 4, Protease protection of LXRα with 22(R)-hydroxycholesterol. [^35S]-labelled LXRα protein was incubated with (A) ethanol (ETOH) control or (B) 22(R)-hydroxycholesterol, subjected to protease digestion with increasing amounts of chymotrypsin, and analyzed by SDS-PAGE and autoradiography.
In vitro synthesized [^35S]-labelled Flag-LXRα protein was subjected to protease digestion with α-chymotrysin. For these studies, LXRα with a Flag epitope fused to the amino terminus was used.
The unavailability of radiolabelled LXRα activators prevents direct ligand binding analysis. To address the possibility that 22(R)-hydroxycholesterol interacts with LXRα, a limited protease protection assay was performed (FIG. 4). In this experiment, several proteolytic fragments were generated when LXRα protein was incubated with increasing concentrations of the protease, chymotrypsin. […] The presence of a specific ligand-protected ˜30 kDa fragment has also been observed during similar analyses with other nuclear receptors. Thus, these protease protection studies support the finding that 22(R)-hydroxycholesterol interacts with LXRα.

RXR/LXR heterodimer = RXR/LXR heterodimer activation, dose response in CV-1 cells with TK-LXREx3-LUC; format: cell-based, human; settings: LXRα expression plasmid, dose-dependent
Protocol: TK-DR-4-LUC; human vitamin D receptor (VDR)^24, TK-DR^3-LUC; human peroxisome proliferator-activated receptor-α (PPARα)^25, TK-PPREx3-LUC; human farnesol activated receptor (FXR)^11, ΔMTV-EcREx5-LUC; human estrogen receptor (ER)^26, ΔMTV-ERE-LUC; human glucocorticoid receptor (GR)^27, MTV-LUC; Drosophila ecdysone receptor (usp/EcR)^15, ΔMTV-EcREx5-LUC. Cells were treated with ETOH or 6 μM 22(R)-hydroxycholesterol. […] FIG. 3(A)-3(D) Activation of LXRα by 22(R)-hydroxycholesterol in Drosophila (SL-2) cells. […] CV-1 cells were cotransfected with TK-LXREx3-LUC reporter plasmid and expression plasmids containing the indicated receptor combinations, and then treated with the indicated ligands. […] CV-1 cells cotransfected with the LXRα expression plasmid and TK-LXREx3-LUC reporter were treated with 9-cis RA, 22(R)-hydroxycholesterol, or both, at the indicated concentrations.
In FIG. 3B. Drosophila SL-2 cells were transfected and assayed as previously described^5 in 6-well plates with […] A5C-hLXRα or A5C-hLXRα, 0.5 mg ADH-LXREx2-LUC, 0.2 mg A5C-βGAL and […] PGEM4 carrier DNA per well.
A subset of receptors that function as RXR heterodimers have the unique ability to be activated by their own ligand, the RXR ligand (i.e., 9-cis retinoic acid), or both ligands together^11,17. […]

[1] = CV-1 cell cotransfection, dose response curves, read-out: EC50 for LXRα activators

ligand-protected 30 kDa chymotrypsin fragment of LXRα (LXRα protein): not
SMILES: CC1=C(/C=C/C(C)=C\C=C\C(C)=C\C(=O)O)C(C)(C)CCC1 [9-cis retinoic acid, reference compound]
maximal induction (RXR/LXR heterodimer): 7 fold

EC50 (LXRα; [1]): 3.5 µM
SMILES: C[C@H](CCCC(C)(C)O)[C@H]1CC[C@H]2[C@@H]3CC=C4C[C@@H](O)CC[C@]4(C)[C@H]3CC[C@]12C [25-hydroxycholesterol]

EC50 (LXRα; [1]): 3.5 µM | induction of transcription by LXRα (LXRα; CV-1 cells, wild-type LXRα, TK-LXREx3-LUC, 50 mM FF-MAS vs ETOH): 5-6 fold
SMILES: CC(C)=CCC[C@@H](C)[C@H]1CC=C2C3=C(CC[C@@]21C)[C@@]1(C)CC[C@H](O)C(C)(C)[C@@H]1CC3 [FF-MAS]

ligand-protected 30 kDa chymotrypsin fragment of LXRα (LXRα protein): not
SMILES: CC(C)CCC[C@@H](C)[C@H]1CC[C@H]2[C@@H]3CC=C4C[C@@H](O)CC[C@]4(C)[C@H]3CC[C@]12C [cholesterol]

LXRα activity (LXRα): no LXRα activity
SMILES: CC(C)=CCCC(C)=CCCC(C)=CCO [farnesol, reference compound]

More lines, now with the values behind:

SMILES: CC(C)CCC[C@@H](C)[C@H]1CC[C@H]2[C@@H]3[C@@H](O)C=C4C[C@@H](O)CC[C@]4(C)[C@H]3CC[C@]12C [7β-hydroxycholesterol]
EC50 (LXRα; [1]): 3.5 µM

SMILES: CC(C)CCC[C@](C)(O)[C@H]1CC[C@H]2[C@@H]3CC=C4C[C@@H](O)CC[C@]4(C)[C@H]3CC[C@@]21C [20(S)-hydroxycholesterol]
EC50 (LXRα; [1]): 1.6 µM

SMILES: CC(C)CC[C@H](O)[C@@H](C)[C@H]1CC[C@H]2[C@@H]3CC=C4C[C@@H](O)CC[C@]4(C)[C@H]3CC[C@]12C [22(S)-hydroxycholesterol]
LXRα activity (LXRα): completely inactive

SMILES: CC(C)C(O)CC[C@@H](C)[C@H]1CC[C@H]2[C@@H]3CC=C4C[C@@H](O)CC[C@]4(C)[C@H]3CC[C@]12C (some centres unmarked) [24-hydroxycholesterol]
EC50 (LXRα): 1.6 µM
